What follows are compounds tested on Hedgehog signal transduction system (Smo) (assay: Gli reporter luciferase assay in NIH-3T3/Gli reporter cells stimulated with mouse Shh-N end fragment). Conditions: NIH3T3; 1 μM compound; NIH-3T3/Gli reporter cells with mouse Shh-N end fragment culture supernatant, 48 hr; luciferase activity, control without compound as 100; read-out: inhibition rate (%) at 1 μM.
Type: cell-based
Description: Inhibition of the Hedgehog signal transduction system can be measured, for example, by quantifying a decrease in the expression level of a reporter gene connected to the downstream of the Gli binding site based on the fluorescence intensity according to the following Experimental Example 1. Alternatively, it can be measured by quantifying the expression of Gli-1 mRNA in a cell extract by quantitative PCR method and the like. A compound that inhibits Hedgehog signal targets Smo, which can be confirmed, for example, by binding fluorescence-labeled Cyclopamine and a test compound to cells expressing Smo, measuring the fluorescence level of the cell, and comparing the value with that without addition of a test compound to find a decrease.
Gli reporter plasmid was constructed by inserting 8×Gli-binding site and chicken δ-crystalline promoter into the upstream of luc+ of pGL3 (Promega).
prepared in reference to the base sequence described in GenBank accession No.; X02187, and chicken genome DNA (Clontech) as a template. PCR reaction was performed using Pfu Turbo (Stratagene) and following the attached protocol. The obtained 108 bp fragment was digested with restriction enzymes BglII and HindIII, and inserted into BglII-HindIII site of pGL3 to give plasmid pGL3/δ-cry promoter.
As 8× Gli-binding site, a sequence containing eight 9-bp Gli bound consensus sequences (GACCACCCA) described in Yoon et al., J. Biol. Chem., vol. 273, pages 3496-3501 (1998) was prepared from synthetic DNA. That is, two synthetic DNAs,
were heat treated at 95° C. for 2 minutes, and incubated at 37° C. for 1 hr for annealing to give a double stranded DNA of the above-mentioned two synthetic DNAs. The obtained double stranded DNA was digested with restriction enzymes BglII and KpnI, and the obtained DNA fragment was inserted into BglII-KpnI site of pGL3/δ-cry promoter to construct plasmid pGL3/δ-cry promoter, 8× Gli binding site, i.e., Gli reporter plasmid. 2. Construction of Plasmid for Expression of Mouse Shh-N End Fragment
As a material for construction of plasmid for Shh-N end fragment expression, mouse Shh cDNA was cloned at first.
The mouse Shh cDNA was cloned by Nested PCR method using mouse 11-day fetus cDNA (Clontech) as a template. The primer sequence was prepared in reference to the base sequence described in GenBank accession No.; NM_009170.
Using the mouse Shh cDNA sequence obtained as mentioned above as a template, a partial cDNA sequence wherein stop codon (TGA) was added to 3′-terminal of cDNA sequence encoding 1st to 198th amino acid sequence of mouse Shh was obtained by PCR method. As the primer set,
In the manner mentioned above, a plasmid for mouse Shh-N end fragment expression, pcDNA3.1/mShh-N, was constructed.
HEK293 cells were grown in D-MEM medium (Invitrogen) containing 10% fetal bovine serum in a 10 cm dish and pcDNA3.1/mShh-N was introduced into the cells using FuGENE6 (Roche Applied Science). Thereafter, the HEK293 cells were cultured in a carbon dioxide gas incubator at 37° C. for 24 hours, and the medium was exchanged with D-MEM medium (Invitrogen) containing 2% fetal bovine serum. After culturing for 48 hr, culture supernatant containing recombinant type mouse Shh-N end fragment was obtained by filtration using a filter ([…]).
Using D-MEM (Invitrogen) containing 10% fetal bovine serum, expression plasmid pcDNA3:1 and Gli reporter plasmid (pGL3/δ-cry promoter, 8× Gli binding site) produced by the method of Experimental Example 1 were introduced into NIH-3T3 cells grown in a 10 cm dish by the use of FuGENE6 (Roche Applied Science).
After culture for 24 hr, the cells were recovered, suspended in D-MEM medium containing 10% fetal bovine serum and supplemented with Geneticin (Life Technologies Oriental, Inc.) to a final concentration of 500 μg/ml, diluted to 10^4 cells/ml, plated on a 96 well plate, and cultured in a carbon dioxide gas incubator at 37° C. to give Geneticin resistant transformed cell line. […]

Going from `CCc1nc2c(cc1Nc1cccc(OC)c1)c(OCC(F)(F)F)c(C(=O)NC1CCN(C(=O)CO)CC1)n2C` [Example 5, 6-ethyl-N-[1-(hydroxyacetyl)piperidin-4-yl]-5-[(3-methoxyphenyl)amino]-1-methyl-3-(2,2,2-trifluoroethoxy)-1H-pyrrolo[2,3-b]pyridine-2-carboxamide] to `CCc1nc2c(cc1NC(=O)c1ccc(OC)cc1)c(OCC(F)(F)F)c(C(=O)NC1CCN(C(=O)CO)CC1)n2C` [Example 34, 6-ethyl-N-[1-(hydroxyacetyl)piperidin-4-yl]-5-{[(4-methoxyphenyl)carbonyl]amino}-1-methyl-3-(2,2,2-trifluoroethoxy)-1H-pyrrolo[2,3-b]pyridine-2-carboxamide], the inhibition at 1 µM falls from 97% to 93%.

First: CCc1nc2c(cc1NC(=O)c1ccccc1)c(OCC(F)(F)F)c(C(=O)NC1CCN(C(=O)CO)CC1)n2C [Example 7, 6-ethyl-N-[1-(hydroxyacetyl)piperidin-4-yl]-1-methyl-5-[(phenylcarbonyl)amino]-3-(2,2,2-trifluoroethoxy)-1H-pyrrolo[2,3-b]pyridine-2-carboxamide]
Second: CCc1nc2c(cc1NC(=O)c1ccccc1F)c(OCC(F)(F)F)c(C(=O)NC1CCN(C(=O)CO)CC1)n2C [Example 22, 6-ethyl-5-{[(2-fluorophenyl)carbonyl]amino}-N-[1-(hydroxyacetyl)piperidin-4-yl]-1-methyl-3-(2,2,2-trifluoroethoxy)-1H-pyrrolo[2,3-b]pyridine-2-carboxamide]
The inhibition at 1 µM of the first is higher: 96% for the first, 93% for the second.

Compared with `CCc1nc2c(cc1CC(=O)c1ccccc1)c(OCC(F)(F)F)c(C(=O)NC1CCN(C(=O)CO)CC1)n2C` [Example 9, 6-ethyl-N-[1-(hydroxyacetyl)piperidin-4-yl]-1-methyl-5-(2-oxo-2-phenylethyl)-3-(2,2,2-trifluoroethoxy)-1H-pyrrolo[2,3-b]pyridine-2-carboxamide], `CCc1nc2c(cc1NC(=O)c1cccc(F)c1)c(OCC(F)(F)F)c(C(=O)NC1CCN(C(=O)CO)CC1)n2C` [Example 30, 6-ethyl-5-{[(3-fluorophenyl)carbonyl]amino}-N-[1-(hydroxyacetyl)piperidin-4-yl]-1-methyl-3-(2,2,2-trifluoroethoxy)-1H-pyrrolo[2,3-b]pyridine-2-carboxamide] is lower in inhibition at 1 µM: 98% for the first, 97% for the second.

First: CCc1nc2c(cc1NC(=O)c1ccc(F)cc1)c(OCC(F)(F)F)c(C(=O)NC1CCN(C(=O)CO)CC1)n2C [Example 24, 6-ethyl-5-{[(4-fluorophenyl)carbonyl]amino}-N-[1-(hydroxyacetyl)piperidin-4-yl]-1-methyl-3-(2,2,2-trifluoroethoxy)-1H-pyrrolo[2,3-b]pyridine-2-carboxamide]
Second: CCc1nc2c(cc1NC(=O)c1ccc(Cl)cc1)c(OCC(F)(F)F)c(C(=O)NC1CCN(C(=O)CO)CC1)n2C [Example 32, 5-{[(4-chlorophenyl)carbonyl]amino}-6-ethyl-N-[1-(hydroxyacetyl)piperidin-4-yl]-1-methyl-3-(2,2,2-trifluoroethoxy)-1H-pyrrolo[2,3-b]pyridine-2-carboxamide]
The inhibition at 1 µM of the first is lower: 90% for the first, 98% for the second.

`CCc1nc2c(cc1NC(=O)c1cccs1)c(OCC(F)(F)F)c(C(=O)NC1CCN(C(=O)CO)CC1)n2C` [Example 29, 6-ethyl-N-[1-(hydroxyacetyl)piperidin-4-yl]-1-methyl-5-[(thiophen-2-ylcarbonyl)amino]-3-(2,2,2-trifluoroethoxy)-1H-pyrrolo[2,3-b]pyridine-2-carboxamide] and `CCc1nc2c(cc1NC(=O)c1ccc(F)cc1)c(OC(C)C)c(C(=O)NC1CCN(C(=O)CO)CC1)n2C` [Example 33, 6-ethyl-5-{[(4-fluorophenyl)carbonyl]amino}-N-[1-(hydroxyacetyl)piperidin-4-yl]-1-methyl-3-(1-methylethoxy)-1H-pyrrolo[2,3-b]pyridine-2-carboxamide] are the same in inhibition at 1 µM: 95% for the first, 95% for the second.

Reference: US8486965B2, “Pyrrolo[2,3-b]pyridine derivative and use thereof for treatment of cancer” (Takeda Pharmaceutical Company Limited, priority 2009, dated 2013)
